Experimental data reported in ChEMBL document CHEMBL1201862, “PubChem BioAssay data set” (2004).
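48-hour exposure; five concentrations; linearly interpolated endpoints. Abbreviation: GI50, concentration required for 50% inhibition of growth.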 Calls of active or inactive are those of the source. Rule as the data show it: active = GI50 up to about 1.1 µM and inactive = higher.

Experiments:
Assay in all cases: growth of human tumour cells (NCI), 48 h
[1] = tested on: RPMI-8226
[2] = tested on: M14
[3] = tested on: SF-268
[4] = tested on: SK-MEL-28
[5] = tested on: ACHN
[6] = tested on: CAKI-1
[7] = tested on: CCRF-CEM
[8] = tested on: PC-3
[9] = tested on: SNB-75
[10] = tested on: HL-60
[11] = tested on: IGROV-1
[12] = tested on: Hs-578T
[13] = tested on: MDA-MB-435
[14] = tested on: HOP-62
[15] = tested on: A498
[16] = tested on: OVCAR-5
[17] = tested on: HCT-15
[18] = tested on: A549
[19] = tested on: NCI-H522
[20] = tested on: HT-29
[21] = tested on: MOLT-4
[22] = tested on: COLO 205
[23] = tested on: EKVX
[24] = tested on: NCI/ADR-RES
[25] = tested on: SW-620
[26] = tested on: SK-MEL-5
[27] = tested on: K562
[28] = tested on: UACC-62
[29] = tested on: LOX IMVI
[30] = tested on: OVCAR-3
[31] = tested on: NCI-H226
[32] = tested on: MDA-N
[33] = tested on: OVCAR-8
[34] = tested on: 786-0
[35] = tested on: U-251
[36] = tested on: KM12
[37] = tested on: BT-549
[38] = tested on: UO-31
[39] = tested on: DU-145
[40] = tested on: HCC 2998
[41] = tested on: RXF 393
[42] = tested on: SK-MEL-2
[43] = tested on: OVCAR-4
[44] = tested on: SR
[45] = tested on: NCI-H460
[46] = tested on: Malme-3M
[47] = tested on: SNB-19
[48] = tested on: MCF7
[49] = tested on: HCT-116
[50] = tested on: TK-10
[51] = tested on: NCI-H23
[52] = tested on: MDA-MB-231
[53] = tested on: SK-OV-3
[54] = tested on: SF-295
[55] = tested on: UACC-257

For `CCN1C/C(=C\c2ccc(Cl)cc2)c2nc(N)c(C#N)c(-c3ccc(Cl)cc3)c2C1`, the GI50 [1] was > 100 µM (inactive), the GI50 [2] was > 100 µM (inactive) and the GI50 [3] was > 100 µM (inactive). The GI50 [4] was > 100 µM (inactive), the GI50 [5] was > 100 µM (inactive) and the GI50 [6] was > 100 µM (inactive). The GI50 [7] was > 100 µM (inactive), the GI50 [8] was > 100 µM (inactive) and the GI50 [9] was 60.3 µM (inactive). For the same compound, the GI50 [10] was > 100 µM (inactive), the GI50 [11] was > 100 µM (inactive) and the GI50 [12] was > 100 µM (inactive). For the same compound, the GI50 [13] was > 100 µM (inactive), the GI50 [14] was > 100 µM (inactive) and the GI50 [15] was > 100 µM (inactive). For the same compound, the GI50 [16] was > 100 µM (inactive), the GI50 [17] was > 100 µM and the GI50 [18] was > 100 µM (inactive). The GI50 [19] was > 100 µM (inactive), the GI50 [20] was > 100 µM (inactive) and the GI50 [21] was 67.9 µM (inactive). The GI50 [22] was > 100 µM (inactive), the GI50 [23] was > 100 µM (inactive) and the GI50 [24] was > 100 µM (inactive). For the same compound, the GI50 [25] was > 100 µM (inactive), the GI50 [26] was > 100 µM (inactive) and the GI50 [27] was > 100 µM (inactive). The GI50 [28] was > 100 µM (inactive), the GI50 [29] was > 100 µM (inactive) and the GI50 [30] was > 100 µM (inactive). The GI50 [31] was > 100 µM (inactive), the GI50 [32] was > 100 µM (inactive) and the GI50 [33] was > 100 µM (inactive). For the same compound, the GI50 [34] was > 100 µM (inactive), the GI50 [35] was > 100 µM (inactive) and the GI50 [36] was > 100 µM (inactive). For the same compound, the GI50 [37] was > 100 µM (inactive), the GI50 [38] was > 100 µM (inactive) and the GI50 [39] was > 100 µM (inactive). For the same compound, the GI50 [40] was > 100 µM (inactive), the GI50 [41] was > 100 µM (inactive) and the GI50 [42] was > 100 µM (inactive). The GI50 [43] was > 100 µM (inactive), the GI50 [44] was 27.1 µM (inactive) and the GI50 [45] was > 100 µM (inactive). The GI50 [46] was > 100 µM (inactive), the GI50 [47] was > 100 µM (inactive) and the GI50 [48] was > 100 µM (inactive). The GI50 [49] was > 100 µM (inactive), the GI50 [50] was > 100 µM (inactive) and the GI50 [51] was > 100 µM (inactive). For the same compound, the GI50 [52] was > 100 µM (inactive), the GI50 [53] was > 100 µM (inactive) and the GI50 [54] was > 100 µM (inactive). For the same compound, the GI50 [55] was > 100 µM (inactive).
